According to US9790545B2, “Method for determining the neurodevelopmental toxicity of a compound in vitro” (UNIVERSITEIT MAASTRICHT, priority 2012, dated 2017):
Read-outs that look alike come from different tables or passages of the source.

Key:
[1] = test system: neural outgrowth of embryoid bodies from murine embryonic stem cells (ES-D3); test: Golden standard classification of neurodevelopmental toxicity (morphological scoring of neural outgrowth); settings: for Golden standard: tox / nontox at the concentration coded in the label (Table 3); for Neuro-developmentally toxic: yes / no at the concentration (μM) given in Table 3
Hoxb6 = test: Relative gene expression in neural differentiation culture of murine embryonic stem cells (ES-D3), microarray; settings: exposed from day 3, harvested day 4 (24 h exposure), ratio to reference value, concentration coded in label (L low, H high, Table 3)
Nrk = test: as above; settings: exposed from day 3, harvested day 4 (24 h exposure), ratio to reference value, concentration coded in label (L low, H high, Table 3)
1700011H14Rik = test: as above; settings: exposed from day 3, harvested day 4 (24 h exposure), ratio to reference value, concentration coded in label (L low, H high, Table 3)
Tph1 = test: as above; settings: exposed from day 3, harvested day 4 (24 h exposure), ratio to reference value, concentration coded in label (L low, H high, Table 3)
[2] = test system: neural outgrowth of embryoid bodies from murine embryonic stem cells (ES-D3)

| Molecule | relative expression value Hoxb6 (Hoxb6) | relative expression value Nrk (Nrk) | relative expression value 1700011H14Rik (1700011H14Rik) | relative expression value Tph1 (Tph1) | Golden standard [1] | Neuro-developmentally toxic [1] | also measured |
| --- | --- | --- | --- | --- | --- | --- | --- |
| CCCC(CCC)C(=O)O [VpaL, Valproic acid] | 0.807 | 0.914 | 0.962 | 0.944 | nontox | no | Golden standard ([1]; listed as VpaH): tox; Neuro-developmentally toxic ([1]; listed as vpaH): yes; relative expression value Hoxb6 (Hoxb6; listed as VpaH): 0.721; relative expression value Nrk (Nrk; listed as VpaH): 1.518; relative expression value 1700011H14Rik (1700011H14Rik; listed as VpaH): 0.316; relative expression value Tph1 (Tph1; listed as VpaH): 1.130 |
| CCCCC(O)(Cn1cncn1)c1ccc(Cl)cc1Cl (stereo not shown) [hexL, Hexaconazole] | – | – | – | – | – | – | Golden standard [2]: nontox; Neuro-developmentally toxic [2]: no |
| CC1(C)S[C@@H]2[C@H](NC(=O)Cc3ccccc3)C(=O)N2[C@H]1C(=O)[O-].[Na+] [pengL, Penicillin G] | – | – | – | – | nontox | no | – |
| Methylmercury chloride [mehgH] | 1.302 | 0.719 | 1.665 | 1.116 | tox | yes | – |

Now from value to molecule, other results behind:

| relative expression value Hoxb6 (Hoxb6) | relative expression value Nrk (Nrk) | relative expression value 1700011H14Rik (1700011H14Rik) | relative expression value Tph1 (Tph1) | Molecule | Golden standard [1] | Neuro-developmentally toxic [1] | also measured |
| --- | --- | --- | --- | --- | --- | --- | --- |
| 0.917 | 0.909 | 1.175 | 0.891 | CC=O [aceL, Acetaldehyde] | nontox | no | Golden standard ([1]; listed as aceH): tox; Neuro-developmentally toxic ([1]; listed as aceH): yes; relative expression value Hoxb6 (Hoxb6; listed as aceH): 1.100; relative expression value Nrk (Nrk; listed as aceH): 1.290; relative expression value 1700011H14Rik (1700011H14Rik; listed as aceH): 0.562; relative expression value Tph1 (Tph1; listed as aceH): 1.094 |
| 0.991 | 1.055 | 0.870 | 0.945 | NC(=O)N1c2ccccc2C=Cc2ccccc21 [cbzL, Carbamazepine] | nontox | no | Golden standard ([1]; listed as cbzH): tox; Neuro-developmentally toxic ([1]; listed as cbzH): yes; relative expression value Hoxb6 (Hoxb6; listed as cbzH): 0.950; relative expression value Nrk (Nrk; listed as cbzH): 1.217; relative expression value 1700011H14Rik (1700011H14Rik; listed as cbzH): 0.533; relative expression value Tph1 (Tph1; listed as cbzH): 0.751 |
| 0.839 | 0.766 | 1.146 | 0.817 | O=C1NC(=O)C(c2ccccc2)(c2ccccc2)N1 [pheL, Phenytoin] | nontox | no | Golden standard ([1]; listed as pheH): tox; Neuro-developmentally toxic ([1]; listed as pheH): yes; relative expression value Hoxb6 (Hoxb6; listed as pheH): 0.840; relative expression value Nrk (Nrk; listed as pheH): 0.781; relative expression value 1700011H14Rik (1700011H14Rik; listed as pheH): 0.995; relative expression value Tph1 (Tph1; listed as pheH): 0.781 |
